Tests used:
Test in all cases: relative viability (nuclei count vs DMSO), 5 days (fraction); higher = more cells survive
IPA-3 + Phenformin = compound: C1=CC=C2C(=C1)C=CC(=C2SSC3=C(C=CC4=CC=CC=C43)O)O [IPA-3] + N=C(N)NC(=N)NCCc1ccccc1 [Phenformin] (partner 250 µM)
How it was run: (§1)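 A single step with final 0.05% Triton X-100, 1% formaldehyde and 1 ug/ml Hoechst fixed the cells and stained nuclei 5 days after treatment. Lung cancer cell lines in 1536-well plates had been treated by pin tool the day after seeding with one drug alone or a fixed anchor-drug dose plus five library-drug doses (not always all listed) in √10 steps, and nuclei were counted on 4× images. Relative viability is the ratio of nuclei in treated wells to nuclei in vehicle wells, taken as the median of duplicate plates.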

Doramapimod + Luminespib = compound: Cc1ccc(-n2nc(C(C)(C)C)cc2NC(=O)Nc2ccc(OCCN3CCOCC3)c3ccccc23)cc1 [Doramapimod] + CCNC(=O)c1noc(-c2cc(C(C)C)c(O)cc2O)c1-c1ccc(CN2CCOCC2)cc1 [Luminespib] (partner 0.01 µM)
How it was run: as §1

Doramapimod + Crizotinib = compound: Cc1ccc(-n2nc(C(C)(C)C)cc2NC(=O)Nc2ccc(OCCN3CCOCC3)c3ccccc23)cc1 [Doramapimod] + C[C@@H](Oc1cc(-c2cnn(C3CCNCC3)c2)cnc1N)c1c(Cl)ccc(F)c1Cl [Crizotinib] (partner 1 µM)
How it was run: as §1

RAF265 + Lapatinib = compound: Cn1c(Nc2ccc(C(F)(F)F)cc2)nc2cc(Oc3ccnc(-c4ncc(C(F)(F)F)[nH]4)c3)ccc21 [RAF265] + CS(=O)(=O)CCNCc1ccc(-c2ccc3ncnc(Nc4ccc(OCc5cccc(F)c5)c(Cl)c4)c3c2)o1 [Lapatinib] (partner 2 µM)
How it was run: as §1

Cell Line | relative viability (IPA-3 + Phenformin; first compound 0.2 µM) | relative viability (IPA-3 + Phenformin; first compound 0.6325 µM) | relative viability (IPA-3 + Phenformin; first compound 2 µM) | relative viability (IPA-3 + Phenformin; first compound 6.325 µM) | relative viability (IPA-3 + Phenformin; first compound 20 µM) | relative viability (Doramapimod + Luminespib; first compound 0.02 µM) | relative viability (Doramapimod + Luminespib; first compound 0.06325 µM) | relative viability (Doramapimod + Luminespib; first compound 0.2 µM) | relative viability (Doramapimod + Luminespib; first compound 0.6325 µM) | relative viability (Doramapimod + Luminespib; first compound 2 µM) | relative viability (Doramapimod + Crizotinib; first compound 0.02 µM) | relative viability (Doramapimod + Crizotinib; first compound 0.06325 µM) | relative viability (Doramapimod + Crizotinib; first compound 0.2 µM) | relative viability (Doramapimod + Crizotinib; first compound 0.6325 µM) | relative viability (Doramapimod + Crizotinib; first compound 2 µM) | relative viability (RAF265 + Lapatinib; first compound 0.01 µM) | relative viability (RAF265 + Lapatinib; first compound 0.03162 µM) | relative viability (RAF265 + Lapatinib; first compound 0.1 µM) | relative viability (RAF265 + Lapatinib; first compound 0.3162 µM) | relative viability (RAF265 + Lapatinib; first compound 1 µM)
201T | 0.452 | 0.454 | 0.484 | 0.461 | 0.469 | 1.01 | 1.01 | 0.99 | 1.18 | 1 | 1.03 | 1.06 | 0.993 | 1.09 | 1.01 | 1.02 | 1.04 | 1.04 | 1.06 | 1.04
A549 | 0.197 |  | 0.142 | 0.189 | 0.298 |  |  |  |  |  | 0.763 | 0.747 | 0.771 | 0.743 | 0.762 | 0.906 | 0.853 | 0.987 | 0.465 | 0.463
A-427 | 0.395 | 0.295 | 0.288 | 0.253 | 0.447 | 0.979 | 0.806 | 1.08 |  | 0.918 | 0.927 | 0.933 | 0.98 |  | 0.932 | 1.06 | 0.949 | 1.06 | 1.11 | 0.713
ABC-1 | 0.258 | 0.247 | 0.236 | 0.258 | 0.235 | 0.423 | 0.67 | 0.156 | 0.863 | 0.555 | 1.03 | 1.09 | 0.842 | 0.75 | 1.29 | 1.08 | 1.01 | 1.2 | 1.25 | 0.886
BEN | 0.268 | 0.291 | 0.243 | 0.243 | 0.388 | 0.537 | 0.56 | 0.351 | 0.13 | 0.352 | 0.855 | 0.683 | 0.85 | 0.742 | 0.761 | 0.726 | 0.76 | 0.945 | 0.831 | 0.557
CAL-12T | 0.763 | 0.512 | 0.529 | 0.529 | 0.694 | 0.363 | 0.381 | 0.345 | 0.364 | 0.395 | 0.687 | 0.726 | 0.746 | 0.635 | 0.727 | 0.68 | 0.653 | 0.825 | 0.598 | 0.449
COR-L23 | 0.532 | 0.426 | 0.471 | 0.431 | 0.232 | 0.71 | 0.659 | 0.787 | 0.741 | 0.541 | 0.705 | 0.573 | 0.571 | 0.651 | 0.667 | 1.02 | 0.982 | 1.02 | 0.748 | 0.62
COR-L 105 | 0.634 | 0.445 | 0.49 | 0.418 | 0.55 | 0.883 | 0.73 | 0.645 | 0.851 | 0.719 | 0.849 | 0.915 | 0.798 | 0.897 | 0.75 | 0.341 | 0.376 | 0.383 | 0.342 | 0.322
Calu-6 |  |  |  |  |  |  |  |  |  |  | 0.823 | 0.815 | 0.865 | 0.866 | 0.745 | 1.01 | 0.875 | 0.877 | 0.485 | 0.388
ChaGo-K-1 | 0.614 | 0.494 | 0.494 | 0.494 | 0.605 | 0.594 | 0.49 | 0.595 | 0.52 | 0.541 | 1.15 | 1.16 | 1.17 |  | 1.11 |  |  |  |  | 
EBC-1 |  |  |  |  |  |  |  |  |  |  | 0.161 | 0.196 | 0.162 | 0.184 | 0.188 | 0.209 | 0.218 | 0.232 | 0.284 | 0.247
EKVX | 0.267 | 0.235 | 0.238 | 0.235 | 0.266 | 0.92 | 0.868 | 0.906 | 0.914 | 0.77 | 0.986 | 0.98 | 0.822 | 0.951 | 0.918 | 0.189 | 0.199 | 0.228 | 0.153 | 0.187
EMC-BAC-2 | 0.642 | 0.467 | 0.541 | 0.576 | 0.594 | 1.28 | 1.17 | 1.12 | 1.22 | 1.15 | 0.716 | 0.758 | 0.792 | 0.771 | 0.699 | 0.908 | 0.856 | 0.857 | 0.993 | 0.449
EPLC-272H | 0.306 | 0.27 | 0.346 | 0.405 | 0.397 | 0.368 | 0.296 | 0.741 | 0.494 | 0.187 | 0.942 | 0.975 | 1.17 | 0.974 | 0.972 | 0.976 | 0.707 | 0.655 | 0.855 | 0.343
H3255 | 0.443 | 0.368 | 0.343 | 0.386 | 0.408 | 0.947 | 0.844 | 0.843 | 0.686 | 0.697 | 0.919 | 0.785 | 0.893 | 0.851 | 0.852 | 0.254 | 0.248 | 0.26 |  | 0.17
HARA | 0.653 | 0.427 | 0.432 | 0.442 | 0.564 | 0.779 | 0.688 | 0.873 |  | 0.576 | 1.27 | 0.966 | 0.965 | 1.08 | 0.992 | 0.889 | 0.752 | 0.633 | 0.493 | 0.421
HCC-15 | 0.634 | 0.343 | 0.469 | 0.477 | 0.583 | 0.472 | 0.425 | 0.444 |  | 0.201 | 0.836 | 0.731 | 0.838 | 0.887 | 0.718 | 0.832 | 0.893 | 0.847 | 0.657 | 0.638
HCC-44 | 0.232 | 0.245 | 0.176 | 0.234 | 0.184 | 1.06 | 1.05 | 1 | 1.24 | 0.983 | 0.884 | 0.856 | 0.755 | 0.771 | 0.772 | 0.994 | 0.895 | 0.993 | 1.04 | 0.968

— the supplement of paper PMC10307832
